Measurements reported in article PMC6072853 (Frontiers in Pharmacology, 2018).

Assays:
Format in all cases: cell-based, human
HeLa cells [1] = test: Lactate dehydrogenase (LDH) cytotoxicity assay; conditions: 24 h
Method: The direct cytotoxic effects of the test agents were determined by a lactate dehydrogenase (LDH) assay. Cells were seeded onto 96-well microplates at a density of 5,000 cells/well and were incubated overnight, after which the medium containing the test compounds at proper concentrations was added. After incubation for 24 h, the activity of LDH released by the treated cells was determined by a commercially available colorimetric kit according to the manufacturer’s instructions (Hoffmann-La Roche Ltd., Basel, Switzerland). Untreated cells served as control, while detergent Triton X-100 and CIS were used as reference agents.

HeLa cells [2] = test: Flow cytometric analysis of cell cycle
Method: The distribution of cells in different cell cycle phases (subG1, G1, S and G2/M) was analyzed via the measurement of cellular DNA content by flow cytometry. HeLa cells were seeded onto 6-well plates and allowed to stand for an overnight. The cells were treated with the selected compounds for 24, 48, or 72 h. Then cells were harvested, washed and fixed in ice cold 70% ethanol and stored at −20°C at least for an hour. Next, a DNA staining solution (containing distilled water, propidium-iodide, Triton-X100, sodium citrate, and ribonuclease-A) was added to each sample and stored in the dark at room temperature for an hour. Stained cells were analyzed by flow cytometry (Partec CyFlow, Partec GmbH, Munster, Germany) with at least 20,000 cells being evaluated for each analysis. Data processing was performed using the ModFit LT 3.3.11 software (Verity Software House, Topsham, ME, United States).

A2780 = test: MTT antiproliferative assay, A2780; conditions: Homo sapiens, 72 h, read-out: Growth inhibition (%) ± SEM; for inhibition at 10 µM: A2780, 10 μM; for inhibition at 30 µM: A2780, 30 μM
Source text: (§1) Gynecological cancer cell lines, including ovarian (A2780), cervical (HeLa), and breast cancer cell lines (MCF7, T47D, MDA-MB-231, and MDA-MB-361) were purchased from the European Collection of Authenticated Cell Cultures (ECACC, Salisbury, United Kingdom). Additional cervical cell lines (SiHa and C33A) and a non-cancerous immortalized, mammary gland epithelial cell line (hTERT-HME1) were purchased from LGC Standards GmbH (Wesel, Germany). Non-cancerous fibroblast cells (MRC-5) were also obtained from the ECACC. All cells were cultured in minimal essential medium supplemented with 10% fetal bovine serum, 1% non-essential amino acids, and 1% antibiotic-antimycotic mixture, in humidified air containing 5% CO2 at 37°C. Immortalized hTERT-HME1 cells were maintained in serum-free mammary epithelial cell growth medium (MEGM) supplemented with insulin, human epidermal growth factor (hEGF), hydrocortisone, bovine pituitary extract, and an antibiotic-antimycotic mixture. All the medium and supplements were purchased from Lonza Group Ltd. (Basel, Switzerland).
(§2) The antiproliferative properties of the compounds were assessed by an MTT assay ([Mosmann, 1983]). Cells were seeded onto 96-well microplates at a density of 10,000 cells/well (MDA-MB-361 and C33A) or 5,000 cells/well (all other cell lines). After an overnight incubation, fresh medium containing the test compounds (at a concentration of 10 or 30 μM) was added. After incubation for 72 h at 37°C in humidified air, [3-(4,5-dimethylthiazol-2-yl)-2,5-diphenyltetrazolium bromide] (MTT) solution (5 mg/mL) was added. Purple formazan crystals were formed by the living cells during a 4 h contact period, which were assayed by spectrophotometry after having been dissolved in 100 μL DMSO. Untreated cells served as control, and cisplatin (CIS) (Ebewe Pharma GmbH, Unterach, Austria) was used as a reference compound. […] Two independent measurements were performed with five parallel wells. To present preliminary data concerning tumor selectivity of the potent compounds, the procedure was repeated on MRC-5 fibroblast and hTERT-HME1 immortalized mammary gland epithelial cells under the same experimental conditions.

HeLa cells [3] = test: Fluorescent double staining (Hoechst 33258 / propidium iodide) morphology; conditions: 24 h, 1.0, 3.0 or 5.0 μM
Method: Fluorescent double staining was performed in order to detect apoptosis induction and morphological changes using fluorescent microscopy. HeLa cells were seeded into a 96-well plate at the density of 3,000Ȓ5,000 cells per well. After an overnight incubation, the cells were treated with various concentrations of the test compounds for 24 h. The treated cells were then incubated with a fluorescent staining solution (containing Hoechst 33258 and propidium iodide, 500 and 300 μg/mL, respectively) for an hour. After staining, the cells were analyzed using a fluorescent microscope (Nikon ECLIPSE 146 TS100, Nikon Instruments Europe, Amstelveen, Netherlands) equipped with appropriate optical filters. For all different conditions, at least six fields were recorded with an attached QCapture CCD camera. This way cells with an intact, apoptotic or necrotic morphology can be distinguished based on their different nuclear morphological appearance and distinct membrane integrity.

MDA-MB-231 = test: MTT antiproliferative assay, MDA-MB-231; conditions: Homo sapiens, 72 h, read-out: Growth inhibition (%) ± SEM; for inhibition at 10 µM: MDA-MB-231, 10 μM; for inhibition at 30 µM: MDA-MB-231, 30 μM
Source text: as §1, §2

caspase-9 = test: Caspase-9 activity colorimetric assay; conditions: HeLa
Method: (§3) In order to detect, whether the test compounds induce programmed cell death, the activity of caspase-3 was determined by a colorimetric assay. To elucidate the exact pathway of apoptosis, activities of caspase-8 and caspase-9 were additionally determined by colorimetric kits. In all cases approximately 12 million cells were treated with appropriate concentrations of the compounds for 24 or 72 h. After the treatment, the cells were scraped and the enzyme activities were determined by means of colorimetric assays mentioned above. All kits were purchased from Abnova Corp. (Taipei, Taiwan) and used in accordance with the instructions of the manufacturer.

caspase-8 = test: Caspase-8 activity colorimetric assay; conditions: HeLa
Method: as §3

C33A = test: MTT antiproliferative assay, C33A; conditions: Homo sapiens, C-33-A, 72 h, read-out: Growth inhibition (%) ± SEM
Source text: as §1, §2

hTERT-HME1 = test: MTT assay, immortalized mammary gland epithelial cells hTERT-HME1; conditions: Homo sapiens; for inhibition at 10 µM: hTERT-HME1, 10 μM; for inhibition at 10 µM / inhibition at 30 µM: 72 h, read-out: Growth inhibition (%) ± SEM; for inhibition at 30 µM: hTERT-HME1, 30 μM
Source text: as §1, §2

HeLa = test: MTT antiproliferative assay, HeLa; conditions: Homo sapiens, 72 h; for inhibition at 10 µM / inhibition at 30 µM: read-out: Growth inhibition (%) ± SEM; for IC50: read-out: calculated IC50 value
Source text: as §1, §2

MRC-5 = test: MTT assay, non-cancerous fibroblasts MRC-5; conditions: Homo sapiens, MRC5, 72 h, read-out: Growth inhibition (%) ± SEM; for inhibition at 10 µM: MRC-5, 10 μM; for inhibition at 30 µM: MRC-5, 30 μM
Source text: as §1, §2

Row | Structure (SMILES) | effect on cell cycle phase distribution (HeLa cells [2]; 24 h) | effect on cell cycle phase distribution (HeLa cells [2]; 48 h) | inhibition at 10 µM (A2780) | inhibition at 30 µM (A2780) | apoptotic and necrotic cell populations (morphology) (HeLa cells [3]) | inhibition at 10 µM (MDA-MB-231) | inhibition at 30 µM (MDA-MB-231) | inhibition at 10 µM (C33A) | inhibition at 30 µM (C33A) | inhibition at 10 µM (hTERT-HME1) | inhibition at 30 µM (hTERT-HME1) | inhibition at 10 µM (HeLa) | inhibition at 30 µM (HeLa) | IC50 (HeLa) | inhibition at 10 µM (MRC-5) | inhibition at 30 µM (MRC-5) | other results
1 | C[C@]12CC[C@H]3[C@@H](CCC4=CC(=O)CC[C@@H]43)[C@@H]1CC[C@H]2Cl [Compound 3] | did not have any remarkable effect on cell cycle | substantially elevated increase of the subG1 population at the expense of G1 cells | < 20% | 32.7 ± 1% | substantial and concentration-dependent increase in both the apoptotic and necrotic cell populations | < 20% | < 20% | < 20% | 61.7 ± 1.7% | 76.2 ± 0.5% | 99.9 ± 0.1% | 95.9 ± 0.3% | 95.1 ± 0.5% | 1210 nM | 4.3 ± 3.7% | 8 ± 2.3% | LDH release (HeLa cells [1]; 3.0 or 5.0 μM): significant; caspase-9 activity (caspase-9; 24 h): significantly elevated; caspase-8 activity (caspase-8; 24 h): no change; IC50 (hTERT-HME1; hTERT-HME1, 72 h, read-out: calculated IC50 value): 4630 nM
2 | C[C@]12CC[C@H]3[C@@H](CCC4=CC(=O)CC[C@@H]43)[C@@H]1CC[C@@H]2O [Compound 1, 19-nortestosterone, reference compound] | significant decrease in the G1 and a moderate but significant increase in the G2/M phase cell population | these changes became more pronounced | < 20% | < 20% | substantial and concentration-dependent increase in both the apoptotic and necrotic cell populations | < 20% | 21.4 ± 1.2% | < 20% | 25.2 ± 1.7% | 16.9 ± 1.2% | 37.1% | 99.5 ± 0.2% | 99.5 ± 0.3% | 650 nM | 5.4 ± 1.2% | 11.3 ± 0.5% | LDH release (HeLa cells [1]; 1.5 μM): substantial LDH release; effect on cell cycle phase distribution (HeLa cells [2]; 72 h): concentration-dependent accumulation of hypodiploid cells; caspase-9 activity (caspase-9; 72 h): activated the initiator caspases; caspase-8 activity (caspase-8; 72 h): less pronounced
